# Measurements as given in paper PMC5718994, “Synthesis and analytical characterization of new thiazol-2-(3H)-ones as human neutrophil elastase (HNE) inhibitors” (Chemistry Central Journal, 2017).
# Tested on: HNE
# Experiment: not given
# Conditions: HNE inhibitor, Fig. 1; cited from earlier work
row,SMILES,IC50
1,Cc1c(-c2ccnn2C)cc(C(=O)NCc2ccc(S(C)(=O)=O)cn2)c(=O)n1-c1cccc(C(F)(F)F)c1 [Alvelestat],12 nM

# Target: T1, HNE (Calbiochem) (Homo sapiens, UniProt P08246)
# T1 construct: purchased Calbiochem
# T1 sequence (P08246 30-267): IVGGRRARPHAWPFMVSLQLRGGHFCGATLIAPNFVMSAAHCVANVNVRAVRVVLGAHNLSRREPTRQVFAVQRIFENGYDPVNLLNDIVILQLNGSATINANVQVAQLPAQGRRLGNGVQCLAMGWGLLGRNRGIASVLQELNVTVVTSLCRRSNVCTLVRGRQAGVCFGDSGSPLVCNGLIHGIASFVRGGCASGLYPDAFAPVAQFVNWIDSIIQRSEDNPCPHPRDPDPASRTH
# Experiment: HNE inhibition assay
# Assay type: biochemical
# Conditions: highest concentration tested 40 µM
# Experimental: Compounds were dissolved in 100% DMSO at 5 mM stock concentrations. The final concentration of DMSO in the reactions was 1%, and this level of DMSO had no effect on enzyme activity. The HNE inhibition assay was performed in black flat-bottom 96-well microtiter plates. Briefly, a buffer solution containing 200 mM Tris–HCl, pH 7.5, 0.01% bovine serum albumin, and 0.05% Tween-20 and 20 mU/mL of HNE (Calbiochem) was added to wells containing different concentrations of each compound. The reaction was initiated by addition of 25 μM elastase substrate (N-methylsuccinyl-Ala–Ala-Pro-Val-7-amino-methyl-coumarin, Calbiochem) in a final reaction volume of 100 μL/well. Kinetic measurements were obtained every 30 s for 10 min at 25 °C using a Fluoroskan Ascent FL fluorescence microplate reader (Thermo Electron, MA) with excitation and emission wavelengths at 355 and 460 nm, respectively.
row,SMILES,HNE inhibitory activity
1,"Cc1cccc(COc2nc(-c3ccccc3)cs2)c1 [Compound 6c, 2-(3-Methylbenzyloxy)-4-phenylthiazole]",inactive
2,"CC(=O)c1sc(OCOC(=O)c2ccccc2)nc1C [Compound 6b, (5-Acetyl-4-methylthiazol-2-yloxy)methyl benzoate]",inactivity
3,"Cc1cccc(Cn2c(-c3ccccc3)csc2=O)c1 [Compound 5c, 3-(3-Methylbenzyl)-4-phenylthiazol-2(3H)-one]",inactive
4,"CC(=O)c1sc(=O)n(COC(=O)c2ccccc2)c1C [Compound 5b, (5-Acetyl-4-methyl-2-oxothiazol-3(2H)-yl)methyl benzoate]",inactivity
5,"O=C(OCOc1nc(-c2ccccc2)cs1)c1ccccc1 [Compound 6a, (4-Phenylthiazol-2-yloxy)methyl benzoate]",inactivity
6,"O=C(OCn1c(-c2ccccc2)csc1=O)c1ccccc1 [Compound 5a, (2-Oxo-4-phenylthiazol-3(2H)-yl)methyl benzoate]",inactivity

# Tested on: not given
# Experiment: not given
# Conditions: not given
row,SMILES,melting point
1,"CC(=O)c1sc(=O)n(-c2cccc(C(F)(F)F)c2)c1C [Compound 3d, 5-Acetyl-4-methyl-3-[3-(trifluoromethyl)phenyl]thiazol-2(3H)-one]",147 to 150 °C
2,"CC(=O)c1sc(=O)n(COC(=O)c2ccccc2)c1C [Compound 5b, (5-Acetyl-4-methyl-2-oxothiazol-3(2H)-yl)methyl benzoate]",121 to 123 °C
3,"Cc1cccc(-n2c(-c3ccccc3)csc2=O)c1 [Compound 3a, 4-Phenyl-3-m-tolyl-thiazol-2(3H)-one]",118 to 121 °C
4,"CC(=O)c1sc(=O)n(CC(=O)Nc2ccccc2)c1C [Compound 2c, 2-(5-Acetyl-4-methyl-2-oxothiazol-3(2H)-yl)-N-phenylacetamide]",188 to 190 °C
5,"Cc1cccc(-n2c(C)csc2=O)c1 [Compound 3e, 4-Methyl-3-m-tolyl-thiazol-2(3H)-one]",69 to 72 °C
6,"Cc1csc(=O)n1CC(=O)Nc1ccccc1 [Compound 2e, 2-(4-Methyl-2-oxothiazol-3(2H)-yl)-N-phenylacetamide]",188 to 191 °C
7,"CC(=O)c1sc(=O)n(CC(=O)Nc2c(Cl)cccc2Cl)c1C [Compound 2d, 2-(5-Acetyl-4-methyl-2-oxothiazol-3(2H)-yl)-N-(2,6-dichlorophenyl)acetamide]",209 to 211 °C
8,"O=C(Cn1c(-c2ccccc2)csc1=O)Nc1ccccc1 [Compound 2a, 2-(2-Oxo-4-phenylthiazol-3(2H)-yl)-N-phenylacetamide]",177 to 179 °C
9,"O=c1scc(-c2ccccc2)n1-c1cccc(C(F)(F)F)c1 [Compound 3b, 4-Phenyl-3-[3-(trifluoromethyl)phenyl]thiazol-2(3H)-one]",84 to 87 °C
10,"CC(=O)c1sc(=O)n(-c2cccc(C)c2)c1C [Compound 3c, 5-Acetyl-4-methyl-3-m-tolylthiazol-2(3H)-one]",104 to 106 °C
11,"O=C(Cn1c(-c2ccccc2)csc1=O)Nc1c(Cl)cccc1Cl [Compound 2b, N-(2,6-dichlorophenyl)-2-(2-oxo-4-phenylthiazol-3(2H)-yl)acetamide]",213 to 216 °C
12,"Cc1csc(=O)n1CC(=O)Nc1c(Cl)cccc1Cl [Compound 2f, N-(2,6-dichlorophenyl)-2-(4-methyl-2-oxothiazol-3(2H)-yl)acetamide]",266 to 269 °C
